This is an account of results in US20180170983A1, “New Use of Cell-Permeable Peptide Inhibitors of the JNK Signal Transduction Pathway for the Treatment of Mild Cognitive Impairment” (Xigen Inflammation Ltd., priority 2015, published 2018).

Series [1] concerns hippocampal CA1 neurons. The following applies: in vivo, transient global ischemia; cited from earlier work.
Series [2] concerns primary embryonic cultures and differentiated PC12 cells. The following applies: at dosages that inhibit activation of JNKs; after trophic withdrawal and in mice treated with 1-methyl-4-phenyl tetrahydropyridine; cited from earlier work.
Series [3] deals with cultured chick embryonic dorsal root ganglion, sympathetic, ciliary and motor neurons. The following applies: cited from earlier work.
Series [4] concerns βTC-3 cell cultures. Briefly: Cellular import of fluorescein-labeled TAT and TAT-IB1(s) peptides. It counts as cell-based. The following applies: for entry of fluorescein labeled peptide into cells: labeled peptides (1 PM), BSA 1 μM, βTC-3 cells. As for the experimental part:
The ability of the L- and D-enantiomeric forms of TAT and TAT-IB(s) peptides (“TAT-IB peptides”) to enter cells was evaluated. L-TAT, D-TAT, L-TAT-IB1(s), and D-TAT-IB1(s) peptides [SEQ ID NOs: 5, 6, 9 and 12, respectively] were labeled by N-terminal addition of a glycine residue conjugated to fluorescein. Labeled peptides (1 PM) were added to βTC-3 cell cultures, which were maintained as described in Example 3. At predetermined times cells were washed with PBS and fixed for five minutes in ice-cold methanol-acetone (1:1) before being examined under a fluorescence microscope. Fluorescein-labeled BSA (1 μM, 12 moles/mole BSA) was used as a control.
Little to no signal was present at 48 hours.
Fluorescent signals from these all-D retro-inverso peptides were still very strong 1 week later, and the signal was only slightly diminished at 2 weeks post treatment.

For series [5], the system named is JNK. The following applies: JBDs of IB1 and IB2 vs c-Jun or ATF2; cited from earlier work.
For series [6], the system named is βTC-3 cells. Briefly: IL-1β induced pancreatic beta-cell death, peptide addition. The class given is cell-based. The following applies: one single addition of peptide 1 μM, two days of incubation with IL-1β. As for the experimental part: Inhibition of IL-1β induced pancreatic beta-cell death by the D-TAT-IB1(s) peptide was analyzed. βTC-3 cells were incubated as described above for 30 minutes with one single addition of the indicated peptides (1 μM), then IL-1 (10 ng/ml) was added.
Apoptotic cells were then counted after two days of incubation with IL-1β by use of Propidium Iodide and Hoechst 33342 nuclear staining. A minimum of 1,000 cells were counted for each experiment. Standard Error of the Means (SEM) are indicated, n=5.
Long term inhibition of IL-1P induced cell-death by the D-TAT-IB1 peptide was also analyzed. βTC-3 cells were incubated as above for 30 minutes with one single addition of the indicated peptides (1 μM), then […] (10 ng/ml) was added, followed by addition of the cytokine every two days. Apoptotic cells were then counted after 15 days of incubation with IL-1 by use of propidium iodide and Hoechst 33342 nuclear staining. […] A minimum of 1.000 cells were counted for each experiment.

Square brackets hold non-standard residues; d marks the D form. Ends that are not written are not given here.

`N#CC(c1ccnc(NCCc2cccnc2)n1)c1nc2ccccc2s1` (stereo not shown) [AS601245]: the “protection against the delayed loss of hippocampal CA1 neurons” value in series [1] is reported as “provided significant protection”.
Take `CCSCc1ccc2c(c1)c1c3c(c4c5cc(CSCC)ccc5n5c4c1n2[C@H]1C[C@](O)(C(=O)OC)[C@]5(C)O1)CNC3=O` [CEP-1347]: the neuronal survival entry in series [2] was “promotes neuronal survival”. For the same compound, the “long term-survival of neurons” value in series [3] is “can promote long term-survival”.
Regarding `CC(C)C[C@@H](NC(=O)[C@@H](Cc1ccccc1)NC(=O)[C@H]1CCCN1C(=O)[C@@H](CCC(N)=O)NC(=O)[C@H](NC(=O)[C@H]1CCCN1C(=O)[C@@H](CCCNC(=N)N)NC(=O)[C@@H](CO)NC(=O)[C@@H](CCC(N)=O)NC(=O)[C@H](N)CC(=O)O)C(C)C)C(=O)N[C@H](CC(N)=O)C(=O)N[C@H](CC(C)C)C(=O)N[C@@H](C(=O)N[C@@H](C(=O)N1CCC[C@@H]1C(=O)N[C@H](CCCNC(=N)N)C(=O)N[C@H](CCCCN)C(=O)N1CCC[C@@H]1C(=O)N[C@H](CCCNC(=N)N)C(=O)N1CCC[C@@H]1C(=O)N1CCC[C@@H]1C(=O)N[C@H](CCCNC(=N)N)C(=O)N[C@H](CCCNC(=N)N)C(=O)N[C@H](CCCNC(=N)N)C(=O)N[C@H](CCC(N)=O)C(=O)N[C@H](CCCNC(=N)N)C(=O)N[C@H](CCCNC(=N)N)C(=O)N[C@H](CCCCN)C(=O)N[C@H](CCCCN)C(=O)N[C@H](CCCNC(=N)N)C(=O)NCC(=O)O)[C@H](C)O)[C@H](C)O` [XG-102], the “stability inside the cells” value in series [4] is “extremely stable inside the cells”.
For the compound “GRKKRRQRRR (Description of sequence Peptide L-TAT (see Table 1))”, the “entry of fluorescein labeled peptide into cells” value in series [4] was “efficiently and rapidly (less than five minutes) entered cells”.
In the case of “GRKKRRQRRRPPRPKRPTTLNLFPQVPRSQD [L-TAT-IB1(s)]”, the “entry of fluorescein labeled peptide into cells” value in series [4] is “efficiently and rapidly (less than five minutes) entered cells”.
“IPSPSVEEPHKHRPTTLRLTTLGAQDS (Description of sequence Peptide IB2-long (see Table 1))”: the “efficiency in binding JNK relative to c-Jun or ATF2” value in series [5] is given as “approximately 100 fold”.
As for “PGTGCGDTYRPKRPTTLNLFPQVPRSQDT (Description of sequence peptide IB1-long (see Table 1))”, in series [5], the “efficiency in binding JNK relative to c-Jun or ATF2” value is “approximately 100 fold”.
As to “RRRQRRKKRG (D-amino acids; Description of sequence Peptide D-TAT (see Table 1); MUTAGEN (1)..(10) all amino acids are D-amino acids)”, the “stability inside the cells” value in series [4] is recorded as “extremely stable inside the cells”.
With “TDQSRPVQPFLNLTTPRKPRYTDPPRRRQRRKKRG ([dT][dD][dQ][dS][dR][dP][dV][dQ][dP][dF][dL][dN][dL][dT][dT][dP][dR][dK][dP][dR][dY][dT][dD][dP][dP][dR][dR][dR][dQ][dR][dR][dK][dK][dR]G) [D-TAT-IB1]”, the IL-1 induced apoptosis result in series [6] was “decreased IL-1 induced apoptosis to a similar extent as L-TAT-IB peptides”.
